This experiment has as its system anionic transport in smooth muscle cells of aorta rings. The experiment in a line: Iodide efflux (125I) on rat aorta rings. The experiment is classed as cell-based. The arrangement: key to iodide discharge speed / iodide discharge speed after stimulation: Ln(125I t1/125I t2)/(t1−t2), per min; key to increase of discharge speed over basal state: difference of Ln(125I t1/125I t2)/(t1−t2) values, per min. The note with it: for iodide discharge speed / increase of discharge speed over basal state: hyperpotassium medium. How it is done:
The iodide efflux technique, perfected by Venglarick et al. (1990), allows measurement of the movement of ions and is described in detail in Derand et al. (2001).
The aorta rings of equivalent size, are incubated in 1 ml of filling solution composed of physiological solution of modified Krebs type or hyperpotassium solution (80 mM KCl) supplemented with 1.5 μl/ml of Na ^125I and 0.1 μl/ml of KI. After incubation for 1 hour 30 minutes at 37° C., 4 successive rinsings of two minutes are carried out in 1 ml of appropriate physiological solution (normal Krebs or hyperpotassium solution). An iodide efflux kinetics of the aorta rings is carried out for 12 min. After each minute, the content of each well is sampled and placed in hemolysis tubes, and radioactivity is counted with a gamma counter (Packard, Cobra II). At the 12th minute, the aorta rings are solubilized in Sodium Dodecyl Sulphate (SDS 0.1%)+NaOH (0.1 M). This stage allows the recovery of the residual radioactivity by cell destruction.
The total radioactivity of the cells is calculated by the addition of the counts per minute (cpm) of each collected fraction and of the cpm of the solubilized fraction (residual radioactivity). The curves are plotted expressing the efflux as a percentage of the cell content accumulated in the medium as a function of time. For example, the value attributed at time tn, corresponds to: 100×(Σ cpm obtained from t0 to tn)/total radioactivity. The instantaneous discharge speed is presented according to the formula Ln(^125It1/^125It2)/(t1−t2), where t1 and t2 are two successive times and ^125It1 and ^125It2 are the effluxes measured at time t1 and t2. In order to evaluate the effect of a substance, the activation ratio r=discharge speed after stimulation/discharge speed before stimulation is determined. The results (average±SEM) are compared using Student's statistical test for a paired value.

Take `Oc1cc2cccc[n+]2c2c(Cl)cccc12.[Cl-]` [MPB-07, 6-hydroxy-10-chlorobenzo[c]quinolizinium chloride]: the iodide discharge speed stood at 0.103±0.017 (L-NAME 10^-4 M, 250 μM, 1 minute after addition); 0.110±0.015 (L-NAME 10^-4 M, 250 μM, 2 minutes after addition); 0.119±0.011 (L-NAME 10^-4 M, 250 μM, 3 minutes after addition); 0.076±0.008 (without endothelium, 250 μM, 1 minute after addition); 0.099±0.013 (without endothelium, 250 μM, 2 minutes after addition). Moreover, the “increase of discharge speed over basal state” value reads like this: (L-NAME, 1 minute) 0.044; (L-NAME, 2 minutes) 0.051; (L-NAME, 3 minutes) 0.060; (without endothelium, 1 minute) 0.023; (without endothelium, 2 minutes) 0.046. The “activation of anionic transport / discharge speed” value (smooth muscle cells of aorta rings) is reported as “activates anionic transport”. Also, the “iodide discharge speed after stimulation” value (without endothelium, normal physiological medium, 250 μM, n=3) was determined as 0.076±0.016.

For the origin of these results see patent publication US7897610B2, “Use of benzo[c]quinolizinium derivatives for the treatment of diseases that are linked to smooth muscle cell constriction” (Centre National de la Recherche Scientifique, priority 2002, dated 2011).
